# Earlier results as cited in US20050227949A1, “Compositions and methods for treatment of viral and bacterial infections” (priority 2004, published 2005).
# Columns and labels:
# [1] = tested on: herpes simplex; conditions: previously reported treatment of herpes simplex infections
# [2] = tested on: suppressor T-cells; conditions: further reported uses; probably due to blockade of selected suppressor T-cells
# [3] = tested on: HIV; conditions: previously reported
compound,measurement,setting,value
CN/C(=N/CCSCc1nc[nH]c1C)NC#N [cimetidine],outbreak and duration of herpes zoster,[1],effectively reduced outbreak and duration of herpes zoster
same,immune functions,[2],improvements of various immune functions
same,treatment result in HIV patients,[3],less encouraging results
